# Measured values reported in patent US12357603B2, “Acyl sulfonamides for treating cancer” (Bayer Aktiengesellschaft, priority 2019, dated 2025).
# Tests used:
# [1] = molecular target: Recombinant human His-tagged Kat6a protein (amino acids 194-810) (Homo sapiens (Human), UniProt Q92794); test: Kat6a activity assay (TR-FRET, acetylation of biotinylated Histone-H4-derived peptide); assay type: biochemical; settings: 60 mins at 22° C., read-out: KAT6A-DPF/HAT domain IC50 [mol/l] (arithmetic mean)
# How it was run: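 TR-FRET read-out of H4 K8 acetylation, using anti-acetyl-K8 antibody and streptavidin acceptor, after anacardic acid stop; IC50 from four-parameter regression normalized to DMSO. Reaction: recombinant human Kat6a aa 194-810 (insect-cell derived), 220 nM H4 1-24 peptide, 600 nM acetyl-CoA, pH 8, 22 °C, 60 min, compounds 0.01-20 μM.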
# [2] = molecular target: Recombinant human GST-tagged Kat6b protein (431-end); test: Kat6b activity assay (TR-FRET, acetylation of biotinylated Histone-H4-derived peptide); assay type: biochemical; settings: 30 mins at 22° C., read-out: KAT6B activity assay IC50 [mol/l] (arithmetic mean)
# [3] = test system: ESR1 transcription (luciferase signal in MVLN cells); test: Repression of ESR1 transcription, luciferase reporter in MVLN cells; assay type: cell-based; settings: Homo sapiens, MVLN, inhibition of luciferase signal in MVLN cells; arithmetic mean
# How it was run: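 Luminescence from an ER-driven Vitellogenin A2 element–luciferase reporter was measured after 24 h of treatment of MVLN cells, in duplicate wells. Alamar Blue (2 h, 530/590 nm) served as a cell-density control.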
# ZR-75-1 cells = test: Proliferation assay ZR-75-1 (Alamar Blue, 144 h); assay type: cell-based; settings: Homo sapiens, ZR-75-1, 144 h, arithmetic mean, read-out: ZR75-1 proliferation assay, EC50 [M] (arithmetic mean)
# How it was run: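 Alamar Blue fluorescence (590 nm, 2 h reagent step) measured viability after 144 h compound exposure at 37 °C, 5% CO2. Compounds spanned 2.0×10E-5 to 2.0×10E-9 M in 9 dilutions at 0.2% DMSO, in triplicate, added 24 h after plating 3000 cells/well in RPMI 1640 plus 2.5% FBS.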
# MDA-MB-436 cells = test: Proliferation assay MDA-MB-436, negative control cell line (Alamar Blue, 144 h); assay type: cell-based; settings: Homo sapiens, MDA-MB-436, 144 h, arithmetic mean
# How it was run: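 Viability read as Alamar Blue fluorescence (590 nm, 2 h) after 144 h compound exposure at 37 °C, 5% CO2. Cells seeded at 3000 per well in 2.5% FBS DMEM/Ham's F12, dosed a day later over 2.0×10E-9–2.0×10E-5 M in 9 steps with 0.2% DMSO, in triplicate.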
# [4] = molecular target: Recombinant human GST-tagged Kat6b protein (431-end) (Homo sapiens, UniProt Q8WYB5); test: Kat6b activity assay (TR-FRET, acetylation of biotinylated Histone-H4-derived peptide); assay type: biochemical; settings: 30 mins at 22° C., read-out: KAT6B activity assay IC50 [mol/l] (arithmetic mean)
# Chain of Recombinant human GST-tagged Kat6b protein (431-end) (Homo sapiens, UniProt Q8WYB5) (Q8WYB5 whole entry, looked up): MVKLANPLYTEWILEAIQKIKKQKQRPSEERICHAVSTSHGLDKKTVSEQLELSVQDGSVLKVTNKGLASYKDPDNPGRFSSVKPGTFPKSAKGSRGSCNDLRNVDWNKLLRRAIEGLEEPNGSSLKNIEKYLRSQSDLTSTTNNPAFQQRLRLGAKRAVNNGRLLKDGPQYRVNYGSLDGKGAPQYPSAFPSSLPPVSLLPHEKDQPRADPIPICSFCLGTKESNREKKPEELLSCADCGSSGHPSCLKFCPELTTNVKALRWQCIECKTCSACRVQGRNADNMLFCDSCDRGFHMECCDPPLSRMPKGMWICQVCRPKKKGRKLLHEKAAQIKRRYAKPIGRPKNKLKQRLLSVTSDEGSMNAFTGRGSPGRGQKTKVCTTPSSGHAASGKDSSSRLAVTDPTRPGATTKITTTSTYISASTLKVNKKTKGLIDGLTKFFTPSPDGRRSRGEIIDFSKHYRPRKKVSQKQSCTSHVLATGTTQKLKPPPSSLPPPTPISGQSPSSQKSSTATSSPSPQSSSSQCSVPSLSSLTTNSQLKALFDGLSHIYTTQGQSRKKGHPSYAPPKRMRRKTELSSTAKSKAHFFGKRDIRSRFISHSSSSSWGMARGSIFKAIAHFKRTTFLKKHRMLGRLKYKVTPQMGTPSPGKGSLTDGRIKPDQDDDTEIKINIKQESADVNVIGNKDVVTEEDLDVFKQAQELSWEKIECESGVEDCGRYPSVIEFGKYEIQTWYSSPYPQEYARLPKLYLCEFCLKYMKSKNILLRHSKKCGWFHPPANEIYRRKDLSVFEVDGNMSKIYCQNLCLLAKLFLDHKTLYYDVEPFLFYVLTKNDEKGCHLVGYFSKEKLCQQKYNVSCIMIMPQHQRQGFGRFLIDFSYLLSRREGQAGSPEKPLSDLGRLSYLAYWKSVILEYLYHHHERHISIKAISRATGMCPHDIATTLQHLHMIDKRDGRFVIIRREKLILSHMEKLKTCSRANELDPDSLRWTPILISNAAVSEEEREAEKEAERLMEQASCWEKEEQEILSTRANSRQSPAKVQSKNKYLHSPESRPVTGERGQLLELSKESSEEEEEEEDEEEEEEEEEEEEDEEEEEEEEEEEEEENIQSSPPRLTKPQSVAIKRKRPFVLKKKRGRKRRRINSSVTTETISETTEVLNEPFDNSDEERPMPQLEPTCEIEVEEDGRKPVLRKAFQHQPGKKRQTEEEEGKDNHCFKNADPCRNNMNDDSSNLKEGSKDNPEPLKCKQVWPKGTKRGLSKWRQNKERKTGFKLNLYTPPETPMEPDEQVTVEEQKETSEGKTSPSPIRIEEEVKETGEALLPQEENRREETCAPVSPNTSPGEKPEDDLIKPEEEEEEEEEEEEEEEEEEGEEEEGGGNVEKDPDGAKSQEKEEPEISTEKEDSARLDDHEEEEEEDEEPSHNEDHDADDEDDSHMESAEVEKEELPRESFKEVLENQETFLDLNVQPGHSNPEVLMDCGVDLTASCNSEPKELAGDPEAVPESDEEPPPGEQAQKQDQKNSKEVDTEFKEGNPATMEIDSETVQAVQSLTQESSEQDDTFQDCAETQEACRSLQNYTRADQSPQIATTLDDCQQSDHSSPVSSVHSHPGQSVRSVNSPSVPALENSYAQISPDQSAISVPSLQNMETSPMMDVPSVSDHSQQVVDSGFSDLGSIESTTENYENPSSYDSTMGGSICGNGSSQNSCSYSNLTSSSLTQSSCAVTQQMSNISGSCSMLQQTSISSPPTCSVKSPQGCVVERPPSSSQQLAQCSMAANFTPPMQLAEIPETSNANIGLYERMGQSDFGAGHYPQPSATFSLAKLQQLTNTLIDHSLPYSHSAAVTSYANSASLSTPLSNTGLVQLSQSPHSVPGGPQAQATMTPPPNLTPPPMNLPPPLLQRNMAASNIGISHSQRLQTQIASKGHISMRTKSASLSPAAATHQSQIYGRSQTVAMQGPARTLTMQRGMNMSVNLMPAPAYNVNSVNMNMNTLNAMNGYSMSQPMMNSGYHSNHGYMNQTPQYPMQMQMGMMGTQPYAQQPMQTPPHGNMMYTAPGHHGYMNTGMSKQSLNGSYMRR
# Chain of Recombinant human His-tagged Kat6a protein (amino acids 194-810) (Q92794 194-810): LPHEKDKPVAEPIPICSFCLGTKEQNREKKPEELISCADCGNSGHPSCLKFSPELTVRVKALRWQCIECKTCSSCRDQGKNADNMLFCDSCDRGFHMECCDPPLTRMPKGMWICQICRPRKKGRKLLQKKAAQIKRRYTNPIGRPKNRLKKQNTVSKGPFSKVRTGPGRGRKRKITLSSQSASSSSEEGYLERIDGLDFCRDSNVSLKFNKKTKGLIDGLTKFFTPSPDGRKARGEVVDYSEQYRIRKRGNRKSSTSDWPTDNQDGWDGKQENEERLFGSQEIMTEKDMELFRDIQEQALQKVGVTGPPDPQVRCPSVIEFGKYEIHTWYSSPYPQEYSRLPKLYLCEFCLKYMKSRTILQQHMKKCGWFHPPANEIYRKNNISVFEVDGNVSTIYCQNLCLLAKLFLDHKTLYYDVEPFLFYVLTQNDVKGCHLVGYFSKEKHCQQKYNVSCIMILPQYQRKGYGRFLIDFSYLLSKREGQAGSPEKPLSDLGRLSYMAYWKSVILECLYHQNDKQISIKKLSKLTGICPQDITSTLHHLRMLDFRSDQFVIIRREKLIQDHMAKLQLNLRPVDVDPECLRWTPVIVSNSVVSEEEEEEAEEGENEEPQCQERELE
Compound,IC50 [1],IC50 [2],IC50 [3],EC50 (ZR-75-1 cells),EC50 (MDA-MB-436 cells),IC50 [4]
"CN(C)c1ccc2cc(C(=O)NS(=O)(=O)c3cc(C(C)(C)C)ccc3OC3CCC3)oc2c1 [Example 182, N-[(5-(tert-butyl)-2-cyclobutoxyphenyl)sulfonyl]-6-(dimethylamino)benzofuran-2-carboxamide]",2.67 nM,11.9 nM,22 nM,6.1e-08 M,> 20000 nM,–
"CC(C)c1ccc(OC2CCC2)c(S(=O)(=O)NC(=O)c2cc3ccc(N(C)C)cc3o2)c1 [Example 184, N-((2-Cyclobutoxy-5-isopropylphenyl)sulfonyl)-6-(dimethylamino)benzofuran-2-carboxamide]",15.9 nM,–,22.5 nM,6.98e-07 M,> 20000 nM,47.8 nM
"COc1ccc(C(C)(C)C)cc1S(=O)(=O)NC(=O)c1cc2ccc(N(C)C)cc2o1 [Example 185, N-((5-(tert-butyl)-2-methoxyphenyl)sulfonyl)-6-(dimethylamino)benzofuran-2-carboxamide]",2.63 nM,13.9 nM,15.1 nM,1.69e-08 M,> 20000 nM,–
"CN(C)c1cc(C(F)(F)F)c2cc(C(=O)NS(=O)(=O)c3ccccc3-c3ccccc3)oc2c1 [Example 193, N-([1,1′-biphenyl]-2-ylsulfonyl)-6-(dimethylamino)-4-(trifluoromethyl)benzofuran-2-carboxamide]",7.14 nM,12.8 nM,1690 nM,6.55e-06 M,> 20000 nM,–
"CCOc1ccccc1S(=O)(=O)NC(=O)c1cc2c(C(F)(F)F)cc(N(C)C)cc2o1 [Example 195, 6-(Dimethylamino)-N-((2-ethoxyphenyl)sulfonyl)-4-(trifluoromethyl)benzofuran-2-carboxamide]",5.73 nM,14.7 nM,716 nM,8.71e-07 M,> 20000 nM,–
"Cc1ccc2cccc(S(=O)(=O)NC(=O)c3cc4c(C(F)(F)F)cc(N(C)C)cc4o3)c2n1 [Example 196, 6-(Dimethylamino)-N-((2-methylquinolin-8-yl)sulfonyl)-4-(trifluoromethyl)benzofuran-2-carboxamide]",1.47 nM,1.78 nM,295 nM,2.12e-06 M,> 14100 nM,–
"CN(C)c1ccc2cc(C(=O)NS(=O)(=O)c3ccccc3-c3ccccc3)oc2c1C(F)(F)F [Example 202, N-([1,1′-biphenyl]-2-sulfonyl)-6-(dimethylamino)-7-(trifluoromethyl)-1-benzofuran-2-carboxamide]",1970 nM,3010 nM,> 20000 nM,> 2e-05 M,> 20000 nM,–
CCOc1ccccc1S(=O)(=O)NC(=O)c1cc2ccc(N(C)C)cc2o1 [Example 223],106 nM,99.1 nM,80.2 nM,5.87e-08 M,> 20000 nM,–
CC(C)Oc1ccccc1S(=O)(=O)NC(=O)c1cc2ccc(N(C)C)cc2o1 [Example 224],58.3 nM,76.4 nM,31.4 nM,5.24e-08 M,> 20000 nM,–
Cc1ccc2cccc(S(=O)(=O)NC(=O)c3cc4ccc(N(C)C)cc4o3)c2n1 [Example 225],22.7 nM,25.8 nM,36.2 nM,7.21e-08 M,> 20000 nM,–
